The values that follow come from ChEMBL document CHEMBL3880412, “Indole derivatives as CFTR modulators” (2009).

For this experiment, the system named is Cystic fibrosis transmembrane conductance regulator (Homo sapiens), P13569 [F508del]. The experiment in a line: Correction activity at CFTR F508 deletion mutant (unknown origin) expressed in mouse NIH/3T3 cells assessed as increase in cAMP/genistein-dependent current amplitude at 10 uM incubated for 10 mins at 37 degC by patch clamp method relative to control. In kind it is cell-based. (In patch-clamp work, channel activity is measured electrically.)
Cystic fibrosis transmembrane conductance regulator (Homo sapiens), P13569 [F508del], sequence (P13569 as listed by the source): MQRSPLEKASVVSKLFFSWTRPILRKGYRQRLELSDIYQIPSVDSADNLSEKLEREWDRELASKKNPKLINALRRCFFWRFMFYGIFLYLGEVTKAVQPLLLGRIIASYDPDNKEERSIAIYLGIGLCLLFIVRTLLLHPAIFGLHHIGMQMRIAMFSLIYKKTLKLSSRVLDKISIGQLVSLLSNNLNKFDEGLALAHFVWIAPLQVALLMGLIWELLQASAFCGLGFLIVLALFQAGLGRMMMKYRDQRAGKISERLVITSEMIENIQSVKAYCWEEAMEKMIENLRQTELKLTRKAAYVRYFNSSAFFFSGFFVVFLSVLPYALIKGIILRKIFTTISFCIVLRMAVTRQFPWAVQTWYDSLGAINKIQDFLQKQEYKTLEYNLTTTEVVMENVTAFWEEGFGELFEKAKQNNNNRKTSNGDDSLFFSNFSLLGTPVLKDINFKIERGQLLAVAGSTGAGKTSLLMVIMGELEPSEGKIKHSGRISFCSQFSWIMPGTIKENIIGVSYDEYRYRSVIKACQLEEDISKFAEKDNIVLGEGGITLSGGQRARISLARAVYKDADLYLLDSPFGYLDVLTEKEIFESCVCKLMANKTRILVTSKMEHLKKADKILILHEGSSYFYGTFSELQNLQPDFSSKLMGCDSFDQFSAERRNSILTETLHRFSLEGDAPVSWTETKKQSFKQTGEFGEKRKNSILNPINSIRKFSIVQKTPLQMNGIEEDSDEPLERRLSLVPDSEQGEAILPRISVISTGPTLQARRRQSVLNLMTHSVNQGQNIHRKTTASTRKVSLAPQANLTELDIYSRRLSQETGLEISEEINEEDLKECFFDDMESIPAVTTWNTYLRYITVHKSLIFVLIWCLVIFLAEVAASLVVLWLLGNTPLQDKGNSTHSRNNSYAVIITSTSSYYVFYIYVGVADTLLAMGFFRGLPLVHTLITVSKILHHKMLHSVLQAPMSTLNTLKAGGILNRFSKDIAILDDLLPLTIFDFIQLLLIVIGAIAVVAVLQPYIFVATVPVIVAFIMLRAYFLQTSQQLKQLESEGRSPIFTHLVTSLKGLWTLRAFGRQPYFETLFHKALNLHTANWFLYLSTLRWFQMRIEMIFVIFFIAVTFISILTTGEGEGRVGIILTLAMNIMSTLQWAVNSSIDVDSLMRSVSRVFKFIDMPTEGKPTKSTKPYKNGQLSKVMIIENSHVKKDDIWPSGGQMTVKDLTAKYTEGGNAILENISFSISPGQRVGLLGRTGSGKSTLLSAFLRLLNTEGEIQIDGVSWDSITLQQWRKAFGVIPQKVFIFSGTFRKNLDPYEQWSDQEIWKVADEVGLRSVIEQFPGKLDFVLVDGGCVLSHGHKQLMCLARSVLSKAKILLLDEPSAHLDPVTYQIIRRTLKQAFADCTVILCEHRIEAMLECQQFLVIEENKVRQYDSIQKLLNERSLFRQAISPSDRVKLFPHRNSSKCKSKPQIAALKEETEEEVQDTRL

Turning to `CC(C)(C)c1cc2cc(NC(=O)C3(c4ccc5c(c4)OC(F)(F)O5)CC3)c(F)cc2n1CC[N+](C)(C)C`, the maximal response (Emax) (in general, the maximal effect, on the per cent scale that the assay sets) came to 122%.

For `CC(C)(C)c1cc2cc(NC(=O)C3(c4ccc5c(c4)OCO5)CC3)c(F)cc2n1C[C@@H](O)CO`, the Emax lay within 120 to 132%.
